According to patent publication US9528114B2, “Method for amplifying locus in bacterial cell” (DANISCO US INC., priority 2008, dated 2016):

Experiments:
BG3594, pDALsub1 = test: Sensitivity to β-chloro-D-alanine of strain carrying alr-expressing plasmid, LB agar plates; format: cell-based, Bacillus subtilis; set-up: key to Resistance (growth) on LB agar plate: +: growth; −: no growth; conditions: for Resistance (growth) on LB agar plate: strain BG3594, pDALsub1
Protocol: (§1) In a first phase, the concentration of β-chloro-D-alanine (CDA) necessary to inhibit growth of B. subtilis was determined by plating dilutions of LB-grown strain BG3594 on LB agar plates containing different concentrations of CDA. […] Other alanine racemase inhibitors, such as cycloserine, could be used instead of CDA.

Bacillus subtilis BG3594 = test: Sensitivity threshold to β-chloro-D-alanine, dilutions plated on LB agar plates; format: cell-based; set-up: key to Resistance (growth) on LB agar plate: +: growth; −: no growth; conditions: for Resistance (growth) on LB agar plate: strain BG3594; for Growth of BG3594 in presence of CDA: LB agar
Protocol: as §1

Structure (SMILES): N[C@H](CCl)C(=O)O [CDA, β-chloro-D-alanine]
- Resistance (growth) on LB agar plate (BG3594, pDALsub1; CDA 20 mg/L): +
- Resistance (growth) on LB agar plate (BG3594, pDALsub1; CDA 50 mg/L): +
- Resistance (growth) on LB agar plate (BG3594, pDALsub1; CDA 100 mg/L): +
- Growth of BG3594 with alr-expressing plasmid in presence of CDA (BG3594, pDALsub1; all CDA concentrations tested (up to 100 mg/L), LB agar): allows growth
- Resistance (growth) on LB agar plate (Bacillus subtilis BG3594; CDA 20 mg/L): +
- Resistance (growth) on LB agar plate (Bacillus subtilis BG3594; CDA 50 mg/L): −**
- Resistance (growth) on LB agar plate (Bacillus subtilis BG3594; CDA 100 mg/L): −
- Growth of BG3594 in presence of CDA (Bacillus subtilis BG3594; concentration of 20 mg/L): can still grow
- Growth of BG3594 in presence of CDA (Bacillus subtilis BG3594; concentration of 50 mg/L): totally inhibited
